One assay has as its system RAMOS. The assay is described as follows: ADCP assay (macrophages). The settings on record: macrophages pre-treated 1 μM TAK-981 and/or 1 nM tafasitamab, E:T 2:1, 3 h, FIG. 4. In kind it is cell-based. The method, then:
Monocytes were positively selected from PBMCs using CD14 MicroBeads on a MACS LS column according to the manufacturer's protocol (Miltenyi Biotec). Isoltaed cells were re-suspended in RPMI medium supplemented with 10% FCS and 1× GlutaMax. Monocytes were maturated into macrophages in T-flasks for 6 to 7 days in the presence of 50 ng/ml M-CSF.
After maturation, macrophages were stained with 2 μM CFSE and detached using 5 mM EDTA and scraping. After washing with PBS, macrophages were re-suspended in medium containing either DMSO (negative control) or 1 μM TAK-981 and allowed to re-attach in 96 well culture plates for 16-24 hours. Target cells were stained using the CellTrace Violet Cell Proliferation Kit (Invitrogen) and co-cultured with pre-treated macrophages in the presence or absence of 1 nM tafasitamab for 3 hours at an E:T ratio of 2:1. The cells were detached using 0.05% Trypsin-EDTA and transferred into multi-well flow cytometry plates. Using flow cytometry the percentage of phagocytosis was evaluated, defined as the percentage of double positive cells out of all CellTrace Violet positive cells.

The subject of assay [1] is Daudi human xenograft tumor model. Kind of assay: Study 1: Daudi human xenograft tumor model. It counts as in vivo, CB17 SCID mice. The settings on record: for tumor growth inhibition as a single agent (in words): Daudi human Burkitt's lymphoma mouse model; for GRI % / Tumor volume on Day 21 (±SEM): Daudi; for GRI %: Day 21, vs vehicle; for Tumor volume on Day 21 (±SEM): in mm³ (unit assumed). As for the experimental part: (§1) The differences in the tumor growth trends over time between pairs of treatment groups were assessed by fitting each animal's data to a simple exponential growth model and comparing the mean growth rates of the two groups, as described in more detail below. The difference in the growth rates was summarized by the GRI, which is the reduction in growth rate experienced by the treatment group relative to that of the reference group, expressed as a fraction of the vehicle growth rate.
(§2) A GRI greater than 100% is interpreted as tumor regression when the vehicle group is the same as the reference group. A negative value of the GRI means that the tumors in the treatment group grew faster than the tumors in the reference group. Statistical significance was determined using an unpaired t-test.
(§3) Low tumor volumes can cause problems with the data analysis, so all measurements below 25 cubic mm (including 0 values) were excluded from the analysis. After this exclusion step, the tumor volume was assumed to follow an exponential growth model. […]
Daudi is a human Burkitt's Lymphoma cell line. A Daudi human xenograft tumor model was generated by subcutaneous inoculation in the flank of 9 week old female CB17 SCID mice (Charles River Laboratories, Wilmington, MA) with 2.0×10^6 Daudi cells (cell suspension in 0.1 ml RPMI with Matrigel 1:1). When the mean tumor volume reached approximately 140 mm^3, the animals were randomized into one vehicle control group and seven treatment groups (n=7/group) as described in Table 1a. Mice were then dosed with 20% HPβCD or Compound I-263a and/or tafasitamab over a 3 week period. In the combination treatment groups, I-263a was administered first, followed immediately by the administration of tafasitamab. Tumor growth and body weight were measured twice per week during the treatment and post-treatment periods, and mice were humanely euthanized once they had reached their humane endpoint. Tumors were measured using Vernier calipers and volumes were calculated using standard equation: V=W^2×L/2, where V=volume, W=width, and L=length for the tumor.
A 0.8625 mg/mL stock solution of I-263a was formulated weekly in 20% HPβCD and administered intravenously (IV) based on an average body weight using a 0.2 mL dosing volume. Final dose of I-263a received was 7.5 mg/kg. I-263a was administered on a BIW schedule for 3 weeks (Days 0, 4, 7, 11, 14, 18). Tafasitamab was formulated prior to each injection in 0.9% saline at 0.354, 1.15, and 2.3 mg/mL. Final dose of tafasitamab received was 3, 10, or 20 mg/kg based on average body weight. Tafasitamab was administered intraperitoneally (IP) using a 0.2 mL dosing volume, on a BIW schedule for 3 weeks (Days 0, 4, 7, 11, 14, 18). The vehicle group received IV treatment with the vehicle for I-263a (20% HPβCD) on a BIW schedule for three weeks (Days 0, 4, 7, 11, 14, 18).
(§4) Statistical analysis for growth rate inhibition was performed on data up to and including Day 21.
In general terms: A xenograft is tissue or cells of one species grown in another, often human tumour cells in immunodeficient mice.

For assay [2], the system named is WSU-DLCL2 human xenograft tumor model. The assay is described as follows: Study 3: WSU-DLCL2 human xenograft tumor model. It counts as in vivo, CB17 SCID mice. To be noted: for GRI % / Tumor volume on Day 21 (±SEM): WSU-DLCL2; for GRI %: Day 21, vs vehicle; for Tumor volume on Day 21 (±SEM): in mm³ (unit assumed); for tumor growth inhibition as single agents (in words): WSU-DLCL2 human DLBCL mouse model. The method, then:
as §1, §2, §3
WSU-DLCL2 is a human DLBCL cell line. A WSU-DLCL2 human xenograft tumor model was generated by subcutaneous inoculation in the flank of 8 week old female CB17 SCID mice (Charles River Laboratories, Wilmington, MA) with 4.0×10^6 WSU-DLCL2 cells (cell suspension in 0.1 mL RPMI 1640 media). When the mean tumor volume reached approximately 200 mm^3, the animals were randomized into one vehicle control group and seven treatment groups (n=7/group) as described in Table 3a. Mice were then dosed with 20% HPβCD or Compound I-263a and/or tafasitamab over a 3 week period. In the combination treatment groups, I-263a was administered first, followed immediately by the administration of tafasitamab. Tumor growth and body weight were measured twice per week during the treatment and post-treatment periods, and mice were humanely euthanized once they had reached their humane endpoint. Tumors were measured using Vernier calipers and volumes were calculated using standard equation: V=W^2×L/2, where V=volume, W=width, and L=length for the tumor.
A 0.8625 mg/mL stock solution of I-263a was formulated weekly in 20% HPβCD and administered intravenously (IV) based on an average body weight using a 0.2 mL dosing volume. Final dose of I-263a received was 7.5 mg/kg. I-263a was administered on a BIW schedule for 3 weeks (Days 1, 4, 8, 11, 15, 18). Tafasitamab was formulated prior to each injection in 0.9% saline at 0.6 mg/mL and 2.0 mg/mL. Final dose of tafasitamab received was 3, 10, or 20 mg/kg based on average body weight. Tafasitamab was administered intraperitoneally (IP) on a BIW schedule for 3 weeks (Days 1, 4, 8, 11, 15, 18). For the 3 mg/kg dose level, 0.1 mL of the 0.6 mg/mL solution was administered. For the 10 mg/kg and 20 mg/kg dose levels, dosing volumes of the 2.0 mg/mL solution were 0.1 mL and 0.2 mL, respectively. The vehicle group received IV treatment with the vehicle for I-263a (20% HPβCD) on a BIW schedule for three weeks (Days 1, 4, 8, 11, 15, 18).
as §4

The mark [3] stands for this setting: I-263a 7.5 mg/kg IV BIW 3 weeks.
Setting [4] is: tafasitamab 3 mg/kg IP BIW 3 weeks.
[5] abbreviates: tafasitamab 10 mg/kg IP BIW 3 weeks.
Setting [6] is: tafasitamab 20 mg/kg IP BIW 3 weeks.

In the case of `Cc1sc(C(=O)c2cncnc2N[C@@H]2C[C@H](COS(N)(=O)=O)[C@@H](O)C2)cc1[C@@H]1NCCc2ccc(Cl)cc21` [Compound I-263a, [(1R,2S,4R)-4-{[5-({4-[(1R)-7-chloro-1,2,3,4-tetrahydroisoquinolin-1-yl]-5-methyl-2-thienyl}carbonyl)pyrimidin-4-yl]amino}-2-hydroxycyclopentyl]methyl sulfamate], the Phagocytosis result with RAMOS is on record as “effectively phagocytosed”. Moreover, in assay [1], the “tumor growth inhibition as a single agent (in words)” value is “inhibits tumor growth”. Moreover, the GRI % is given as 32% in assay [1] (I-263a 7.5 mg/kg IV BIW); 14% in assay [2] (I-263a 7.5 mg/kg IV BIW, 7.5 mg/kg); “did not result in significant growth rate inhibition” in assay [2] (I-263a 7.5 mg/kg IV BIW, listed as TAK-981). Moreover, the “Tumor volume on Day 21 (±SEM)” value is on record as 1015.9 ± 137.9 in assay [1] (setting [3]) and 1410.7 ± 155.8 in assay [2] (setting [3]). In addition, the “tumor growth inhibition as single agents (in words)” value in assay [2] is given as “do not show significant or extensive tumor growth inhibition”.

Regarding “Tafasitamab: humanized monoclonal antibody that targets the antigen CD19, engineered in the IgG Fc-region to enhance ADCC; sequences in Table 1”, the Phagocytosis result in the assay with RAMOS is “effectively phagocytosed”. The “tumor growth inhibition as a single agent (in words)” value in assay [1] is listed as “inhibits tumor growth”. For the same compound, the GRI % is given as 24% in assay [1] (tafasitamab 3 mg/kg IP BIW); 28% in assay [1] (tafasitamab 10 mg/kg IP BIW); 38% in assay [1] (tafasitamab 20 mg/kg IP BIW); 20% in assay [2] (tafasitamab 3 mg/kg IP BIW); 12% in assay [2] (tafasitamab 10 mg/kg IP BIW); “did not result in significant growth rate inhibition” in assay [2] (tafasitamab 10 mg/kg IP BIW, listed as tafasitamab). In addition, the GRI % is 2% in assay [2] (tafasitamab 20 mg/kg IP BIW) and “did not result in significant growth rate inhibition” in assay [2] (tafasitamab 20 mg/kg IP BIW, listed as tafasitamab). For the same compound, the “Tumor volume on Day 21 (±SEM)” value in assay [1] (setting [4]) is 1142 ± 135.1; in assay [1] (setting [5]), 1132.7 ± 116.5; in assay [1] (setting [6]), 835.2 ± 89.1; in assay [2] (setting [4]) it was 1197.3 ± 168.3; in assay [2] (setting [5]), 1494.3 ± 126.3; in assay [2] (setting [6]), 1519.0 ± 110.8. The “tumor growth inhibition as single agents (in words)” value in assay [2] was “do not show significant or extensive tumor growth inhibition”.
